Source: patent US10421774B2 (priority 2016, dated 2019)

Columns and labels:
Assay in all cases: microbe, parasite or virus in culture
Type in all cases: cell-based, HIV-1
[1] = tested on: A364V site directed mutant virus; settings: Human immunodeficiency virus 1, MT2, read-out: A364V EC50
How it was run: (§1)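 Virus yield quantified by Renilla luciferase after 4–5 day culture at 37°C of MT-2 cells (10,000/well) with 3-fold serially diluted compound at 1% final DMSO. Reporter viruses were NL4-3 P373S derivatives bearing Gag A364V or V370A/ΔT371, inputs matched on luciferase endpoint.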

[2] = tested on: gag V370A/ΔT371 virus; settings: Human immunodeficiency virus 1, MT2, read-out: V370A/ΔT371 EC50
How it was run: as §1

[3] = tested on: NLRepRlucP373S recombinant wild type (WT) virus; settings: Human immunodeficiency virus 1, MT2, read-out: WT EC50
How it was run: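 Multiple-cycle assay: luciferase-normalized NL4-3-derived NLRepRlucP373S (Renilla luciferase in place of nef) infects MT-2 cells, 10,000 cells/well, with 3-fold compound dilutions at 1% DMSO, 4-5 days, 37 °C. EC50 and EC90 fitted by median effect equation against Renilla luminescence, with residual signal under 3 μM NFV as background.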

[4] = tested on: T332S/V362I/Pr R41G virus; settings: Human immunodeficiency virus 1, MT2, read-out: T332S/V362I/pr41G EC50
How it was run: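 Multiple-cycle susceptibility: MT-2 cells, 10,000 per well, exposed to 3-fold compound dilutions at 1% DMSO after infection with luciferase-normalized inoculum. Virus: NL4-3-derived Renilla reporter (Gag P373S) with Gag T332S/V362I and protease R41G. Readout Renilla luciferase after 4–5 days, 37 °C.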

C=C(C)[C@@H]1CC[C@]2(NCC[C@]3(O)CC[C@H](S(C)(=O)=O)CC3)CC[C@]3(C)[C@H](CC[C@@H]4[C@@]5(C)CC=C(C6=CC[C@@](COc7ncccc7C#N)(C(=O)O)CC6)C(C)(C)[C@@H]5CC[C@]43C)[C@@H]12 [Example A4, (S)-1-(((3-cyanopyridin-2-yl)oxy)methyl)-4-((1R,3aS,5aR,5bR,7aR,11aS,11bR,13aR,13bR)-3a-((2-((1r,4S)-1-hydroxy-4-(methylsulfonyl)cyclohexyl)ethyl)amino)-5a,5b,8,8,11a-pentamethyl-1-(prop-1-en-2-yl)-2,3,3a,4,5,5a,5b,6,7,7a,8,11,11a,11b,12,13,13a,13b-octadecahydro-1H-cyclopenta[a]chrysen-9-yl)cyclohex-3-enecarboxylic acid]
EC50 [1]: 26 nM
EC50 [2]: 6 nM
EC50 [3]: 4 nM
EC50 [4]: 6 nM

C=C(C)[C@@H]1CC[C@]2(NCC[C@]3(O)CC[C@@H](S(C)(=O)=O)CC3)CC[C@]3(C)[C@H](CC[C@@H]4[C@@]5(C)CC=C(C6=CC[C@](COc7ncccc7C#N)(C(=O)O)CC6)C(C)(C)[C@@H]5CC[C@]43C)[C@@H]12 [Example A5, (R)-1-(((3-cyanopyridin-2-yl)oxy)methyl)-4-((1R,3aS,5aR,5bR,7aR,11aS,11bR,13aR,13bR)-3a-((2-((1s,4R)-1-hydroxy-4-(methylsulfonyl)cyclohexyl)ethyl)amino)-5a,5b,8,8,11a-pentamethyl-1-(prop-1-en-2-yl)-2,3,3a,4,5,5a,5b,6,7,7a,8,11,11a,11b,12,13,13a,13b-octadecahydro-1H-cyclopenta[a]chrysen-9-yl)cyclohex-3-enecarboxylic acid]
EC50 [1]: 6 nM
EC50 [2]: 3 nM
EC50 [3]: 2 nM
EC50 [4]: 3 nM

C=C(C)[C@@H]1CC[C@]2(NCC[C@]3(O)CC[C@H](S(C)(=O)=O)CC3)CC[C@]3(C)[C@H](CC[C@@H]4[C@@]5(C)CC=C(C6=CC[C@](COc7ncccc7C#N)(C(=O)O)CC6)C(C)(C)[C@@H]5CC[C@]43C)[C@@H]12 [Example A6, (R)-1-(((3-cyanopyridin-2-yl)oxy)methyl)-4-((1R,3aS,5aR,5bR,7aR,11aS,11bR,13aR,13bR)-3a-((2-((1r,4S)-1-hydroxy-4-(methylsulfonyl)cyclohexyl)ethyl)amino)-5a,5b,8,8,11a-pentamethyl-1-(prop-1-en-2-yl)-2,3,3a,4,5,5a,5b,6,7,7a,8,11,11a,11b,12,13,13a,13b-octadecahydro-1H-cyclopenta[a]chrysen-9-yl)cyclohex-3-enecarboxylic acid]
EC50 [1]: 5 nM
EC50 [2]: 8 nM
EC50 [3]: 2 nM
EC50 [4]: 8 nM

C=C(C)[C@@H]1CC[C@]2(NC[C@@H](O)CO)CC[C@]3(C)[C@H](CC[C@@H]4[C@@]5(C)CC=C(C6=CC[C@](COc7ncccc7C#N)(C(=O)O)CC6)C(C)(C)[C@@H]5CC[C@]43C)[C@@H]12 [Example A7, (R)-1-(((3-cyanopyridin-2-yl)oxy)methyl)-4-((1R,3aS,5aR,5bR,7aR,11aS,11bR,13aR,13bR)-3a-(((R)-2,3-dihydroxypropyl)amino)-5a,5b,8,8,11a-pentamethyl-1-(prop-1-en-2-yl)-2,3,3a,4,5,5a,5b,6,7,7a,8,11,11a,11b,12,13,13a,13b-octadecahydro-1H-cyclopenta[a]chrysen-9-yl)cyclohex-3-enecarboxylic acid]
EC50 [1]: 477 nM
EC50 [2]: 5 nM
EC50 [3]: 3 nM
EC50 [4]: 5 nM
